From publication PMC10578352, “Identification of a Protein Arginine Methyltransferase 7 (PRMT7)/Protein Arginine Methyltransferase 9 (PRMT9) Inhibitor” (Journal of Medicinal Chemistry, 2023) come the findings set out here.

Test [1] addresses T1, GST-HsPRMT7 (Homo sapiens, UniProt Q9NVM4).
T1 construct: made in house; host or cells: E. coli
T1 sequence (Q9NVM4 1-692): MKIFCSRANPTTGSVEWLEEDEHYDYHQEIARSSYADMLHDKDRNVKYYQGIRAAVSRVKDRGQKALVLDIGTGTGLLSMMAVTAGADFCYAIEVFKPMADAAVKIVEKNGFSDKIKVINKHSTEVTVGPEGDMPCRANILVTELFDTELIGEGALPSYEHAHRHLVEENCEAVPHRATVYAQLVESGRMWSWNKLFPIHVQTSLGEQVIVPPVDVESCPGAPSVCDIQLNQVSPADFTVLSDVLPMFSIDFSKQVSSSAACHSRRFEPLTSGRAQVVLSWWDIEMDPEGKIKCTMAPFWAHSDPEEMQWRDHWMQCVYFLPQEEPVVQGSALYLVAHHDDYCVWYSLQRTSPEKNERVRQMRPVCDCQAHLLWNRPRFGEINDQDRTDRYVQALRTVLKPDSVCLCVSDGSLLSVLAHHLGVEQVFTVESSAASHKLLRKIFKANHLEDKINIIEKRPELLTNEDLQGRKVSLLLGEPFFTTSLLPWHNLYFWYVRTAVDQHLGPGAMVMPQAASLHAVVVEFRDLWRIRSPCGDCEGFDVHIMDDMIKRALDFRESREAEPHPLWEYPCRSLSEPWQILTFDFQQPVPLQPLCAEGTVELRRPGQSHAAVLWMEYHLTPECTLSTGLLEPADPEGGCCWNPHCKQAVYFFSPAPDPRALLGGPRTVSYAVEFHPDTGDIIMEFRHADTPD
Put plainly: Radioisotope-based assay (SDS-PAGE, fluorography, densitometry), HsPRMT7. The class given is biochemical. The conditions noted are these: substrate HsH2B, 15 °C, read-out: % HsPRMT7 residual activity. The protocol: (§1) Based on these outcomes, we resolved to explore the effect on the capability to inhibit PRMT9 enzymatic activity of further reduction of the distance between the pharmacophoric moieties. […] After the experiment was repeated with 100, 250, and 500 μM concentrations of each inhibitor, half inhibition was observed only at a concentration of roughly 250 μM (Figure 4d).
(§2) […]. The experiments were performed as reported in the Experimental procedures section. GST-HsPRMT9 (a) and GST-HsPRMT7 (b) were incubated with human GST-SF3B2 (401–550) peptide or recombinant HsH2B, respectively (1 μg of enzyme, 5 μg of substrate), 0.14 μM [^3H]SAM, and the indicated concentrations of tested compounds at the corresponding optimal reaction temperature (37 °C for HsPRMT9, 15 °C for HsPRMT7). C. elegans GST-tagged enzymes PRMT9 (c) and PRMT7 (d) were incubated with GST-CeSFTB-2 (99–248) fragment or recombinant HsH2B, respectively (1 μg of enzyme, 5 μg of substrate), 0.14 μM [^3H]SAM, and the indicated concentrations of tested compounds at the corresponding optimal reaction temperature (25 °C for CePRMT9, 15 °C for CePRMT7). After SDS-PAGE, the gels were treated as previously described[48] and densitometry analysis was done using ImageJ software, and data was plotted as normalized activity to the no inhibitor controls.
(§3) Human PRMT9, C. elegans PRMT9, human PRMT7, and C. elegans PRMT7 plasmids were sequenced, expressed in E. coli as GST-fusion proteins, and purified as previously described.[48] Substrates were also sequenced and purified as described [human GST-SF3B2 (401–550);[13]C. elegans SFTB-2;[48] human histone H2B (New England Biolabs, M2505S)]. Xenopus laevis histone H2B was expressed in E. coli and purified similarly to what was previously reported by Luger et al.[72]
(§4) Reactions consisting of approximately 1 μg of enzyme (human or C. elegans GST-tagged enzymes PRMT9 and PRMT7), reacted with approximately 5 μg of substrate [for human PRMT9, human GST-SF3B2 401–550 fragment; C. elegans PRMT9 with C. elegans GST-SFTB-2 (99–248) fragment, or recombinant human histone H2B from New England Biolabs (M2505S)], were incubated for the indicated time in reaction buffer {50 mM potassium HEPES buffer, 10 mM NaCl, 1 mM dithiothreitol (DTT), pH 8.0 with 0.7 μM S-adenosyl-L-[methyl-^3H]methionine (^3H-AdoMet, PerkinElmer Life Sciences, 82.7 Ci/mmol, 0.55 mCi/mL in 10 mM H2SO4/EtOH [9:1 (v/v)])} in a final reaction volume of 60 μL. Each reaction was incubated at the corresponding optimal reaction temperature (37 °C for human PRMT9, 25 °C for C. elegans PRMT9, and 15 °C for C. elegans and human PRMT7 enzymes. MTA was dissolved in water, and a wavelength scan was taken to determine the final concentration using the extinction coefficient. The final concentrations used are indicated in the figure legends. […]. EML734, EML736, and EML709 were also dissolved in DMSO, and further dilutions were made in DMSO for the working stocks. For controls, no inhibitor reactions were created by the addition of the respective solvent (water for MTA and DMSO for EPZ015666 and EML inhibitors).
After the reaction incubations with the various concentrations of inhibitors, the reactions were quenched by adding 0.2 volume of 5× SDS sample loading buffer, and subsequently, the reactions were run on a 12.6% polyacrylamide Tris gel. To collect the radioactive signal, the gels were then treated in the same way as previously described.[48] […]

The subject of test [2] is CePRMT9. Put plainly: Radioisotope-based assay (SDS-PAGE, fluorography, densitometry), CePRMT9. As to conditions: substrate GST-CeSFTB-2 (99–248), 25 °C. The class given is biochemical, Caenorhabditis elegans. The protocol:
as §1, §2, §3, §4
After the reaction incubations with the various concentrations of inhibitors, the reactions were quenched by adding 0.2 volume of 5× SDS sample loading buffer, and subsequently, the reactions were run on a 12.6% polyacrylamide Tris gel. To collect the radioactive signal, the gels were then treated in the same way as previously described.[48]
After various exposures were collected to ensure linear detection, densitometry analysis was done using ImageJ software, and data were plotted as normalized activity to the no inhibitor controls.

For `COC(=O)c1cc(O)c2cc(NC(=O)NCCCNC(=N)NC[C@H]3O[C@@H](n4cnc5c(N)ncnc54)[C@H](O)[C@@H]3O)ccc2c1` [1a], the remaining activity at 100 µM in test [1] came out at 0.5%. For the same compound, the “% CePRMT9 residual activity” value in test [2] (5 uM) was 106.32%; in test [2] (25 uM), 67.30%; in test [2] (50 uM), 31.52%; in test [2] (100 uM), 19.47%.
In the same order, the values of `COC(=O)c1cc(O)c2cc(NC(=O)NCCCCNC(=N)NC[C@H]3O[C@@H](n4cnc5c(N)ncnc54)[C@H](O)[C@@H]3O)ccc2c1` [1b] are 8.27%, 114.11%, 95.80%, 52.55% and 39.17%.
As for `COC(=O)c1cc(O)c2cc(NC(=O)NCCCCCNC(=N)NC[C@H]3O[C@@H](n4cnc5c(N)ncnc54)[C@H](O)[C@@H]3O)ccc2c1` [1c], the remaining activity at 100 µM in test [1] stood at 0.03%. The “% CePRMT9 residual activity” value in test [2] (5 uM) was 110.89%; in test [2] (25 uM), 81.62%; in test [2] (50 uM), 50.08%; in test [2] (100 uM) it was 12.31%.
